From patent publication US20080103191A1, “ENTACAPONE-DERIVATIVES” (priority 2006, published 2008)
≈ marks a conversion by molar mass, not a printed value. Where two headings read alike, the source gives them in different places.

Key:
[1] = Chemical hydrolysis stability at pH 1 and pH 7.4 (HPLC); format: physicochemical; conditions: 37° C., over 12 h
Procedure: The stability of compounds of the present invention is tested at pH 1 and at pH 7.4. The testing is carried out by the following HPLC method:
Chemical hydrolysis rates t1/2 [h] of selected compounds of formula I are determined in 0.1 N HCl (pH 1) and PBS buffer (pH 7.4) solution. Solutions are prepared by dissolving an appropriate amount of compound in 0.1 N HCl and PBS buffer solution. Samples were withdrawn at designated time intervals and analysed for remaining prodrug by HPLC at 37° C. over 12 h.
Reversed phase gradient HPLC method, column YMC Pro C8, 50 mm×4.0 mm, 3 μm, Eluent A: Water:trifluoroacetic acid (100:0.5 (v/v)), Eluent B: Acetonitrile:trifluoroacetic:acid (100:0.5 (v/v)). Column temperature 30° C., Flow rate 3.0 mL/min, Detection wavelength: 220 nm
For evaluation, the peak area of the respective compound from the first injection is defined as 100% relative concentration. The peak areas of all other subsequent injections are calculated in percentage relating to this standard. (relative concentration in %). The relative concentrations are plotted in a logarithmic scale (ln) against the injection times. Based on the assumption of a first order kinetic, the rate constant and half life times (t1/2 [h]) can be calculated.

[2] = Storage stability at ambient temperature; format: physicochemical; conditions: glass bottles, more than two years, reanalysis by HPLC/MS and NMR
[3] = Log D (pH 7.4) by isocratic HPLC; format: physicochemical; conditions: YMC Pro C18 column, phosphate buffer pH 7.4/acetonitrile 45/55
Procedure: LogD is an indicator for absorption and lipophilicity for ionized compounds under defined pH conditions and is measured by applying an isocratic HPLC Method at pH 7.4.
The log D has been tested at pH 7.4. The testing has been carried out by the following method: Isocratic HPLC method: Column YMC Pro C18, 150 mm×4.0 mm, 3 μm, Eluent Phosphate buffer pH 7.4/acetonitrile (45/55, (v/v)), Runtime 15-60 min, Flow rate 1.2 ml/min, Detection wavelength: 220 nm

[4] = Solubility in Labrasol and TPGS/PG formulations; format: physicochemical; conditions: Labrasol, oil or lipid; read-out: Solubility Labrasol ®
Procedure: Selected lipophilic carbonate compounds of formula I with promising Caco-2 permeabilities are formulated with different lipids/lipophilic excipients and/or micelles forming compounds in order to increase their solubilities. The following formulations are prepared by mixing the ingredients mentioned below: • i) Formulations comprising solubilizers in the form of lipides/lipophilic excipients: • ia) Formulation comprising Labrasol® and the selected compounds of Formula I • Labrasol®: • Caprylocaproyl macrogol-8-glyceride (CAS No. 85536-07-8 and 84963-88-2). This is a mixture of mono-, di- and triesters of glycerol and of PEG 400 with medium-chain fatty acids (C8-C10) which is marketed, for example, by Gattefossé under the mark Labrasol®; Labrasol® has an HLB value (hydrophil-lipophil-balance, Griffin, W. C.: Classification of surface active agents by HLB, J. Soc. Cosmet. 1, 1949) of 14 and has the following composition by weight:
• ib) Formulation comprising NanoSolve® 5401 (Lipoid GmbH, Germany) and the selected compounds of formula I • ic) Formulation comprising TPGS/PG in a weight ratio of 25% by weight of TPGS to 75% by weight of PG and the selected compounds of formula I. • PG: propylene glycol • TPGS: Vitamin E TPGS NF (d-α-tocopheryl polyethylene glycol 1000 succinate) which is marketed, for example, by Eastman Chemical Co • ii) Formulation comprising a micelles forming agent: • iia) Aqueous formulation comprising 30% by weight of Cremophor® RH 40 (relating to the weight of the aqueous phase) in water and the selected compounds of formula I • Cremophor® RH 40: • Generic names: • Polyoxyl 40 Hydrogenated Castor Oil (USP/NF). • Macrogol-Glycerolhydroxystearat (DAB). • Polyoxyethylenglyceroltrihydroxystearat (DAC). • Cremophor RH 40 is a non-ionic solubilizer and emulsifying agent obtained by reacting 45 moles of ethylene oxide with 1 mole of hydrogenated castor oil. The main constituent of Cremophor RH 40 is glycerol polyethylene glycol oxystearate, which, together with fatty acid glycerol polyglycol esters, forms the hydrophobic part of the product. The hydrophilic part consists of polyethylene glycols and glycerol ethoxylate. Cremophor RH 40 is a white to yellowish thin paste at 20° C. The HLB value lies between 14 and 16. Cremophor RH 40 is marketed by BASF AG.
The solubility of selected compounds of formula I in these formulations is measured and compared to the solubility of the compounds in 0.1N HCl (pH 1.0), PBS buffer (pH 7.4), and two simulated gastric fluids (i.e., FaSSIF (pH 6.5) simulating fasting sate and FeSSIF (pH 5.0) simulating fed state) (see above for details).

[5] = Solubility in 0.1 N HCl, PBS buffer, FaSSIF and FeSSIF; format: physicochemical; conditions: thermodynamic from solid
Procedure: For testing solubility, saturated solutions of selected compounds of formula I are prepared in four different systems and compared to the solubility of entacapone. The solubility is tested in 0.1 N HCl (pH 1), PBS buffer (pH 7.4) and in two simulated gastric fluids, FaSSIF at pH 6.5 (for fasting state) and FeSSIF at pH 5.0 (for fed state) at ambient temperature. The content of the FaSSIF simulated gastric fluid is as follows:
The solubility testing is carried out by the following method: An excess amount of each compound is added to a 0.1 N HCl, PBS buffer, FeSSIF and FaSSIF. The suspensions are shaken for 10 min. After centrifugation the concentration is determined by HPLC. Reversed phase gradient HPLC method, column YMC Pro C8, 50 mm×4.0 mm, 3 μm, Eluent A: Water:trifluoroacetic acid (100:0.5 (v/v)), Eluent B: Acetonitrile:trifluoroacetic:acid (100:0.5 (v/v)). Column temperature 30° C., Flow rate 3.0 mL/min, Detection wavelength: 220 nm

[6] = Permeability in Caco-2 cells, apical to basolateral; format: in vitro ADME; set-up: dose or concentration left out as unconfirmed; conditions: human; 21d Caco-2 monolayer, apical pH 6.5 to basolateral pH 7.4, 60 minutes
Source text: The human adenocarcinoma cell line Caco-2 is used as an in vitro system to predict oral absorption. These cells serve as a model of small bowel tissue and permeation through these cells is a predictor for gastro-intestinal absorption. Further to being a model for oral absorption, permeability in Caco-2 cells may be predictive for the blood brain barrier permeability (P. Garberg et al.; Toxicology in vitro 19 (2005); 299-334). […] The permeability in Caco-2 cells has been tested by the following method:
The permeability of selected compounds of formula I across Caco-2 (21d Caco-2-culture) monolayer in the apical to basolateral direction is investigated. Control substances were ^3H-propranolol and ^3H-mannitol.
The nominal concentration of the test items is […]. The pH value is set to 6.5 for the apical transport medium and to 7.4 for the basolateral medium. Samples are obtained following 60 minutes (120 minutes for control samples) incubation from the basolateral receiver chamber. At sampling time approximately 600 μL of each well are transferred into an eppendorf vial and stored between −12° and −30° C. until HPLC or LC-MS/MS analysis. The control substances are quantified by liquid scintillation.

t1/2 at pH 1 ([1]; 0.1 N HCl): stable
t1/2 at pH 7.4 ([1]; PBS buffer): stable
degradation on storage [2]: without degradation
chromatographic logD [3]: 0.5
solubility [4]: 23000 µg/mL (≈ 75.3 mM)
solubility at 10 min ([5]; 0.1 N HCl, pH 1, simulated gastric fluid, Table 11, maximum solubility, read-out: Solubility 0.1N HCl pH 1.0): 50 µg/mL (≈ 0.164 mM)
solubility at 10 min ([5]; 0.1 N HCl, pH 1, simulated gastric fluid, ambient temperature, shaken 10 min, read-out: Solubility 0.1N HCl Ph 1.0): 50 µg/mL (≈ 0.164 mM)
solubility at 10 min ([5]; FaSSIF, pH 6.5, fassif, Table 11, read-out: Solubility FaSSIF pH 6.5): 150 µg/mL (≈ 0.491 mM)
solubility at 10 min ([5]; FaSSIF, pH 6.5, fassif, fasting state fluid, ambient temperature, read-out: Solubility FaSSIF Ph 6.5): 150 µg/mL (≈ 0.491 mM)
solubility at 10 min ([5]; FeSSIF, pH 5, fessif, Table 11, read-out: Solubility FeSSIF pH 5.0): 990 µg/mL (≈ 3.24 mM)
solubility at 10 min ([5]; FeSSIF, pH 5, fessif, fed state fluid, ambient temperature, read-out: Solubility FeSSIF Ph 5.0): 990 µg/mL (≈ 3.24 mM)
solubility at 10 min ([5]; PBS buffer, pH 7.4, aqueous buffer, Table 11, read-out: Solubility PBS pH 7.4): 1350 µg/mL (≈ 4.42 mM)
solubility at 10 min ([5]; PBS buffer, pH 7.4, aqueous buffer, ambient temperature, read-out: Solubility PBS Ph 7.4): 1350 µg/mL (≈ 4.42 mM)
Papp A→B at 60 min [6]: 17 ×10⁻⁶ cm/s
SMILES: CCN(CC)C(=O)/C(C#N)=C/c1cc(O)c(O)c([N+](=O)[O-])c1 [entacapone, (E)-N,N-diethyl-2-cyano-3-(3,4-dihydroxy-5-nitrophenyl)acrylamide]
